23 compounds from US9249151B2, “Bis-amido pyridines” (Boehringer Ingelheim International GmbH, priority 2013, dated 2016) can be followed below.

One may read the IC50 as the point on the concentration scale where inhibition reaches its midpoint.

This experiment addresses BIR3 domain of human cIAP1 (amino acids 256 to 363; cIAP1 BIR3) (Homo sapiens (Human), UniProt Q13490). Description: cIAP1 BIR3 binding assay (DELFIA). How it is done:
XIAP BIR3 and cIAP1 BIR3 Binding Assays (DELFIA)
Peptide […]-Lys(Biotin), representing the N-terminus of mature human SMAC (SMAC peptide), was used as interaction partner in the protein-peptide interaction assay.
BIR3 domains (10 nM) were incubated with SMAC peptide (10 nM) in assay buffer (50 mM Tris, 120 mM NaCl, 0.1% BSA, 1 mM DTT, 0.05% TritonX100) for one hour at room temperature in the presence of inhibitory compounds. The assay mixture was transferred to a streptavidin coated plate and incubated for one hour at room temperature to allow binding of the biotinylated peptide and associated BIR3 domains to the plate. After several washing steps Eu labeled anti-GST antibody (e.g. Perkin Elmer DELFIA Eu-N1-antiGST AD0250) was added to detect BIR3 domain-SMAC peptide interactions m according to Perkin Elmer's instructions. […] Time resolved Europium fluoresecence was measured in a Wallac Victor using Standard assay settings.
DELFIA assay results were plotted against compound concentrations and Software GraphPad Prizm was used to calculate half maximal inhibitory concentrations (IC50 values).

Setting [1] is: BIR3 domain 10 nM, SMAC peptide 10 nM, values represent the (S)-isomers, * = racemic compound, read-out: cIAP1 BIR-3 IC50.

Read-outs that look alike come from different tables or passages of the source.

Chain of BIR3 domain of human cIAP1 (amino acids 256 to 363; cIAP1 BIR3) (Q13490 256-363): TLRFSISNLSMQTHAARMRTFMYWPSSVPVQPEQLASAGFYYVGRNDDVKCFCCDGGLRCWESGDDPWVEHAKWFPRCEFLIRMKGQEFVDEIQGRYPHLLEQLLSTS

For the compound `CNC(C)C(=O)Nc1cc(-c2nccc3c(=O)n(C)n(C)c23)cc(NC(=O)c2ccc(Cl)cn2)n1` (racemic) [Example 58, 5-chloro-N-(4-{1,2-dimethyl-3-oxo-1H,2H,3H-pyrazolo-[3,4-c]pyridin-7-yl}-6-[2-(methylamino)propanamido]-pyridin-2-yl)pyridine-2-carboxamide], the IC50 under setting [1] is 3 nM.
On the same count and under the same terms, the result for `CNC(C)C(=O)Nc1cc(-c2ncnc3c(C)nn(C)c23)cc(NC(=O)c2ccc(Cl)cn2)n1` (centres unmarked) [Example 1, 5-chloro-N-(4-{1,3-dimethyl-1H-pyrazolo[4,3-d]pyrimidin-7-yl}-6-[2-(methylamino)propanamido]pyridin-2-yl)pyridine-2-carboxamide] reads 1 nM.
The same measure, in the same setting: then `CNC(C)C(=O)Nc1cc(-c2ncnc3c(C)nn(C)c23)cc(NC(=O)c2cc3c(cn2)COC3)n1` (centres unmarked) [Example 2, N-(4-{1,3-dimethyl-1H-pyrazolo[4,3-d]pyrimidin-7-yl}-6-[2-(methylamino)propanamido]-pyridin-2-yl)-1H,3H-furo[3,4-c]pyridine-6-carboxamide], with 2 nM; and `CNC(C)C(=O)Nc1cc(-c2c(C)noc2C)cc(NC(=O)c2ccc(Cl)cn2)n1` (centres unmarked) [Example 3, 5-chloro-N-[4-(dimethyl-1,2-oxazol-4-yl)-6-[2-(methylamino)propanamido]-pyridin-2-yl]pyridine-2-carboxamide], with 3 nM; and `CNC(C)C(=O)Nc1cc(-c2ccncc2C#N)cc(NC(=O)c2ccc(Cl)cn2)n1` (centres unmarked) [Example 4, 5-chloro-N-[4-(3-cyanopyridin-4-yl)-6-[2-(methylamino)propanamido]-pyridin-2-yl]pyridine-2-carboxamide], with 28 nM.
Same read-out and setting: then `CNC(C)C(=O)Nc1cc(-c2c(C)ncnc2C)cc(NC(=O)c2ccc(Cl)cn2)n1` (centres unmarked) [Example 5, 5-chloro-N-[4-(4,6-dimethylpyrimidin-5-yl)-6-[2-(methylamino)propanamido]-pyridin-2-yl]pyridine-2-carboxamide], with 5 nM; and `CNC(C)C(=O)Nc1cc(-c2c(C)nc3ccccn23)cc(NC(=O)c2ccc(Cl)cn2)n1` (centres unmarked) [Example 6, 5-chloro-N-{6-[2-(methylamino)propanamido]-4-{2-methylimidazo[1,2-a]pyridin-3-yl}pyridin-2-yl}pyridine-2-carboxamide], with 10 nM.
On to `CNC(C)C(=O)Nc1cc(-c2cccc3cnn(C)c23)cc(NC(=O)c2ccc(Cl)cn2)n1` (centres unmarked) [Example 7, 5-chloro-N-[4-(1-methyl-1H-indazol-7-yl)-6-[2-(methylamino)propanamido]-pyridin-2-yl]pyridine-2-carboxamide], for which the IC50 under setting [1] was 3 nM.
The same measure, in the same setting: then `CNC(C)C(=O)Nc1cc(-c2nccc3cccc(C)c23)cc(NC(=O)c2ccc(Cl)cn2)n1` (centres unmarked) [Example 8, 5-chloro-N-{6-[2-(methylamino)propanamido]-4-(8-methylisoquinolin-1-yl)pyridin-2-yl}pyridine-2-carboxamide], with 1 nM.
With `CNC(C)C(=O)Nc1cc(-c2ncnc3cccc(C)c23)cc(NC(=O)c2ccc(Cl)cn2)n1` (centres unmarked) [Example 9, 5-chloro-N-{6-[2-(methylamino)propanamido]-4-(5-methylquinazolin-4-yl)pyridin-2-yl}pyridine-2-carboxamide], the IC50 stood at 1 nM.
As to `CNC(C)C(=O)Nc1cc(-c2c(C)nc3cccc(C)n23)cc(NC(=O)c2ccc(Cl)cn2)n1` (centres unmarked) [Example 10, 5-chloro-N-(4-{2,5-dimethylimidazo[1,2-a]pyridin-3-yl]-6-[2-(methylamino)propanamido]-pyridin-2-yl)pyridine-2-carboxamide], the IC50 under setting [1] was determined as 7 nM.
On the same count and under the same terms, the result for `CNC(C)C(=O)Nc1cc(-c2cccc3nc(C)c(C)n23)cc(NC(=O)c2ccc(Cl)cn2)n1` (centres unmarked) [Example 11] reads 1 nM; that for `CNC(C)C(=O)Nc1cc(-c2cccc3nn(C)c(C)c23)cc(NC(=O)c2ccc(Cl)cn2)n1` (centres unmarked) [Example 12, 5-chloro-N-[4-(2,3-dimethyl-2H-indazol-4-yl)-6-[2-(methylamino)propanamido]-pyridin-2-yl]pyridine-2-carboxamide], 3 nM; that for `CNC(C)C(=O)Nc1cc(-c2cccc3c2c(C)nn3C)cc(NC(=O)c2ccc(Cl)cn2)n1` (centres unmarked) [Example 13, 5-chloro-N-[4-(1,3-dimethyl-1H-indazol-4-yl)-6-[2-(methylamino)propanamido]-pyridin-2-yl]pyridine-2-carboxamide], 2 nM.
Still for that read-out and setting: then `CNC(C)C(=O)Nc1cc(-c2ncnc3cccc(F)c23)cc(NC(=O)c2ccc(Cl)cn2)n1` (centres unmarked) [Example 14, 5-chloro-N-[4-(5-fluoroquinazolin-4-yl)-6-[2-(methylamino)propanamido]-pyridin-2-yl]pyridine-2-carboxamide], with 1 nM; and `CNC(C)C(=O)Nc1cc(-c2ncnc3oc(C)c(C)c23)cc(NC(=O)c2ccc(Cl)cn2)n1` (centres unmarked) [Example 15, 5-chloro-N-(4-{5,6-dimethylfuro[2,3-d]pyrimidin-4-yl}-6-[2-(methylamino)propanamido]-pyridin-2-yl)pyridine-2-carboxamide], with 1 nM; and `CNC(C)C(=O)Nc1cc(-c2ncnc3nc(C)n(C)c23)cc(NC(=O)c2ccc(Cl)cn2)n1` (centres unmarked) [Example 16, 5-chloro-N-[4-(7,8-dimethyl-7H-purin-6-yl)-6-[2-(methylamino)propanamido]-pyridin-2-yl]pyridine-2-carboxamide], with 1 nM.
For `CNC(C)C(=O)Nc1cc(-c2nn(C)c3ncnc(N)c23)cc(NC(=O)c2ccccn2)n1` (centres unmarked) [Example 17, N-(4-{4-amino-1-methyl-1H-pyrazolo[3,4-d]pyrimidin-3-yl}-6-[2-(methylamino)propanamido]-pyridin-2-yl)pyridine-2-carboxamide], the IC50 under setting [1] was determined as 95 nM.
Same read-out and setting: then `CNC(C)C(=O)Nc1cc(-c2cnc3cccc(Cl)n23)cc(NC(=O)c2ccc(Cl)cn2)n1` (centres unmarked) [Example 18, 5-chloro-N-(4-{5-chloroimidazo[1,2-a]pyridin-3-yl}-6-[2-(methylamino)propanamido]-pyridin-2-yl)pyridine-2-carboxamide], with 1 nM; and `CNC(C)C(=O)Nc1cc(-c2c(OC)ccc3ccccc23)cc(NC(=O)c2ccc(Cl)cn2)n1` (centres unmarked) [Example 19, 5-chloro-N-[4-(2-methoxynaphthalen-1-yl)-6-[2-(methylamino)propanamido]-pyridin-2-yl]pyridine-2-carboxamide], with 225 nM; and `CNC(C)C(=O)Nc1cc(-c2c(OC)ccc3nccnc23)cc(NC(=O)c2ccc(Cl)cn2)n1` (centres unmarked) [Example 20, 5-chloro-N-[4-(6-methoxyquinoxalin-5-yl)-6-[2-(methylamino)propanamido]-pyridin-2-yl]pyridine-2-carboxamide], with 50 nM.
Same read-out and setting: the result for `CNC(C)C(=O)Nc1cc(-c2nc(C)nc3c(C)nn(C)c23)cc(NC(=O)c2ccc(Cl)cn2)n1` (centres unmarked) [Example 21, 5-chloro-N-{6-[2-(methylamino)propanamido]-4-{trimethyl-1H-pyrazolo[4,3-d]pyrimidin-7-yl}pyridin-2-yl}pyridine-2-carboxamide] reads 1 nM.
For the compound `CNC(C)C(=O)Nc1cc(-c2ncnc3cccc(Cl)c23)cc(NC(=O)c2ccc(Cl)cn2)n1` (centres unmarked) [Example 22, 5-chloro-N-[4-(5-chloroquinazolin-4-yl)-6-[2-(methylamino)propanamido]-pyridin-2-yl]pyridine-2-carboxamide], under setting [1], the IC50 worked out at 1 nM.
